Assays:
Assay type in all cases: cell-based, Eucalyptus grandis
[1] = tested on: co-cultivated internode explants of Eucalyptus clone Eg8; test: Effect of kanamycin level on shoot regeneration from co-cultivated explants, Exp II
Procedure: (§1) Internode segment explants were prepared as described in Example 2 above. The explants were placed on a co-cultivation medium in a sideways orientation. The co-cultivation medium was usually EuCo19 (Table 2), although a similar medium could be employed. EuCo19 was based on the regeneration medium EuCo14, supplemented with 100 μM of acetosyringone. In addition, EuCo19 was solidified with gelrite while EuCo14 was solidified with agar. After 50 internode explants were placed on one medium plate, 1-2 μl of Agrobacterium cells were applied to each internode. The plate was then sealed and incubated at 22° C. under low intensity light (300 lux) for three days.
(§2) After 3 days of co-cultivation, the explants were transferred to regeneration/selection medium containing 20-50 mg/l kanamycin and 250 mg/l timentin. In a number of experiments, 10-30 explants from each treatment were taken from the selection medium at day 4 on the medium and tested for transient transgene expression using a GUS staining procedure described in Example 3.6 below.
(§3) In a follow-up experiment, 425 internode explants of the E. grandis clone C101 were co-cultivated with LBA4404 containing the binary vector pART69 and then transferred to selection media containing five different concentrations of kanamycin. The regeneration efficiencies were 100%, 17%, 8%, 3% and 1% from kanamycin concentrations of 0, 20, 30, 40 and 50 mg/l, respectively.

[2] = tested on: wild type internode explants of E. grandis clone 8 or C101; test: Effect of kanamycin level on shoot regeneration from wild type explants
Procedure: A range of kanamycin concentrations (0, 5, 10, 15, 20, 30, 40 and 50 mg/l) were then tested in four experiments to determine the minimum level of kanamycin for inhibiting regeneration from the wild type internode explants (Table 5).
Fifty internode explants of the E. grandis clone 8 or C101 were cultured on each of the eight media consisting of EuCo14 supplemented with kanamycin at eight different concentrations, namely 0, 5, 10, 15, 20, 30, 40 and 50 mg/l. […] An excessive level of kanamycin kills non-transformed cells in the explant early in the selection stages. This will reduce the regeneration from transformed cells which would be surrounded by these dead non-transformed cells.

[3] = tested on: internode explants of Eucalyptus clone C101 co-cultivated with LBA4404 containing pART69; test: Effect of kanamycin level on shoot regeneration from co-cultivated explants, Exp I
Procedure: as §1, §2, §3

NC[C@H]1O[C@H](O[C@H]2[C@H](O)[C@@H](O[C@H]3O[C@H](CO)[C@@H](O)[C@H](N)[C@H]3O)[C@H](N)C[C@@H]2N)[C@H](O)[C@@H](O)[C@@H]1O [Kanamycin, kanamycin]
Regeneration Rate ([1]; kanamycin 20 mg/l): 29%
Regeneration Rate ([1]; kanamycin 30 mg/l): 12%
Regeneration Rate ([1]; kanamycin 40 mg/l): 6%
Regeneration Rate ([1]; kanamycin 50 mg/l): 4%
Regeneration Rate ([2]; kanamycin 5 mg/L in EuCo14, Exp 3): 2%
Regeneration Rate ([2]; kanamycin 5 mg/L in EuCo14, Exp 4): 10%
Regeneration Rate ([2]; kanamycin 10 mg/L in EuCo14, Exp 3): 0%
Regeneration Rate ([2]; kanamycin 10 mg/L in EuCo14, Exp 4): 0%
Regeneration Rate ([2]; kanamycin 15 mg/L in EuCo14, Exp 3): 0%
Regeneration Rate ([2]; kanamycin 15 mg/L in EuCo14, Exp 4): 0%
Regeneration Rate ([2]; kanamycin 20 mg/L in EuCo14, Exp 1): 0%
Regeneration Rate ([2]; kanamycin 20 mg/L in EuCo14, Exp 2): 4%
Regeneration Rate ([2]; kanamycin 30 mg/L in EuCo14, Exp 1): 0%
Regeneration Rate ([2]; kanamycin 30 mg/L in EuCo14, Exp 2): 0%
Regeneration Rate ([2]; kanamycin 40 mg/L in EuCo14, Exp 1): 0%
Regeneration Rate ([2]; kanamycin 40 mg/L in EuCo14, Exp 2): 0%
Regeneration Rate ([2]; kanamycin 50 mg/L in EuCo14, Exp 1): 0%
Regeneration Rate ([2]; kanamycin 50 mg/L in EuCo14, Exp 2): 0%
Regeneration Rate ([3]; kanamycin 20 mg/l): 17%
Regeneration Rate ([3]; kanamycin 20 mg/l, listed as kanamycin): 17%
Regeneration Rate ([3]; kanamycin 30 mg/l): 8%
Regeneration Rate ([3]; kanamycin 30 mg/l, listed as kanamycin): 8%
Regeneration Rate ([3]; kanamycin 40 mg/l): 3%
Regeneration Rate ([3]; kanamycin 40 mg/l, listed as kanamycin): 3%
Regeneration Rate ([3]; kanamycin 50 mg/l): 1%
Regeneration Rate ([3]; kanamycin 50 mg/l, listed as kanamycin): 1%

From patent publication US20050086714A1, “Eucalyptus transformation method” (AGRIGENESIS BIOSCIENCES LIMITED, priority 2003, published 2005)
